We go through two molecules from paper PMC8213057, “Targeting ALK2: An Open Science Approach to Developing Therapeutics for the Treatment of Diffuse Intrinsic Pontine Glioma” (Journal of Medicinal Chemistry, 2020).

SMILES strings stand for the structures. Several values for one entry are separate records, joined by “and”; a condition that tells them apart may be missing. Equal values may be shown once.

The target in data set [1] is TRKA (Homo sapiens, UniProt P04629). Briefly: biochemical. The settings on record: read-out: % enzyme activity, 1 μM; Run 1, Run 2.
Chain of TRKA (P04629 33-796): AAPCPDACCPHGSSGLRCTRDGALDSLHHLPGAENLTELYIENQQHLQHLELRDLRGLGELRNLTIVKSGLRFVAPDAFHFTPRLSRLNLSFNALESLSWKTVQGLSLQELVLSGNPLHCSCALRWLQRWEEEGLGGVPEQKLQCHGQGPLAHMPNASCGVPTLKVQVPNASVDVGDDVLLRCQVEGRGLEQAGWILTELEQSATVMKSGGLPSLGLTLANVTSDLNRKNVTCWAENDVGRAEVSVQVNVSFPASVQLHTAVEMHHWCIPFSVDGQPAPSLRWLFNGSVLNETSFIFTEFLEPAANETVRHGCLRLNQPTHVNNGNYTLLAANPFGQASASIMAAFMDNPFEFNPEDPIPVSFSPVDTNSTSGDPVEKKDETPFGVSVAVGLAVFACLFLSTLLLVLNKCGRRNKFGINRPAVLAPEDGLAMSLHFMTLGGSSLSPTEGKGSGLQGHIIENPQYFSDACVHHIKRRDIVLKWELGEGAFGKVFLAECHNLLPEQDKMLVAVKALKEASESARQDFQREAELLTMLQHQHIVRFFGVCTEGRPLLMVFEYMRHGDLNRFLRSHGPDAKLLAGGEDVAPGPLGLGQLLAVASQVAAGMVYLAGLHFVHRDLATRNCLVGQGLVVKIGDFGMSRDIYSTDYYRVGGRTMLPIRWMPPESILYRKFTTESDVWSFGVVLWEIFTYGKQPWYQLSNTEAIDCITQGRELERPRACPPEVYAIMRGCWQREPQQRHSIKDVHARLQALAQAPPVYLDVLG
Data set [2] addresses MLK1/MAP3K9 (Homo sapiens, UniProt P80192). Briefly: biochemical. As to conditions: read-out: % enzyme activity, 1 μM; Run 1, Run 2.
Data set [3] deals with CDK5/p35 (Homo sapiens, UniProt Q00535). As to conditions: 1 μM; Run 1, Run 2.
Chain of CDK5/p35 (Q00535 whole entry): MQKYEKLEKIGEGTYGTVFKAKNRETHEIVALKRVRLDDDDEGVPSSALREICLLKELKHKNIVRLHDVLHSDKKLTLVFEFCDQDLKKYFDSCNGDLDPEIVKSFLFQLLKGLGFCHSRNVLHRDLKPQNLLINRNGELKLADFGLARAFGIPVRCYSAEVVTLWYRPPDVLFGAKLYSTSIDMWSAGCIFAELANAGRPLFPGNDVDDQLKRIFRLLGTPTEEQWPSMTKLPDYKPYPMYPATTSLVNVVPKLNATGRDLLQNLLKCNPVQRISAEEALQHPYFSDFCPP
Chain of CDK5/p35 (Q15078 whole entry partner): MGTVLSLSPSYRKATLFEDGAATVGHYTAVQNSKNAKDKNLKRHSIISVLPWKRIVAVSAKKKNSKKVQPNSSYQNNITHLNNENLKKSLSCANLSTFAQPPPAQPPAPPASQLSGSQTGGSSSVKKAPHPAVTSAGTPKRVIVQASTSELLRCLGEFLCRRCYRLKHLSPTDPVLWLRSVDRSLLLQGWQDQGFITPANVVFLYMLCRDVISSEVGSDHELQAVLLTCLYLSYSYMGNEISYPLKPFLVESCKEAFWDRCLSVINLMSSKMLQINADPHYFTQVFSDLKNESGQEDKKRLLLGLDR
For data set [4], the target named is NIM1 (Homo sapiens, UniProt Q8IY84). The settings on record: 1 μM; Run 1, Run 2.
Chain of NIM1 (Q8IY84 whole entry): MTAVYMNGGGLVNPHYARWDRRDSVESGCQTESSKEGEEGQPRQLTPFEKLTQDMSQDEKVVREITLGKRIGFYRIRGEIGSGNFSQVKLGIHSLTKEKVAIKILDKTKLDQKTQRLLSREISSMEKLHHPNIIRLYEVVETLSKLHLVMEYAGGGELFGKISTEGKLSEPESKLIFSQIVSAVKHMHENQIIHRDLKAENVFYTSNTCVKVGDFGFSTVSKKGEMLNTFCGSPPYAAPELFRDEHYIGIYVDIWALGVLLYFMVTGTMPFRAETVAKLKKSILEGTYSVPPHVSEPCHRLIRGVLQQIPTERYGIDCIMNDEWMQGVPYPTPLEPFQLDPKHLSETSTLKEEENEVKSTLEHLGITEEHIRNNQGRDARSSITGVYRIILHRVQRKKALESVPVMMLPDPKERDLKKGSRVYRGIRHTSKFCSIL
Data set [5] relates to MINK/MINK1.
Data set [6] concerns the target T1, EPHB1 (Homo sapiens, UniProt P54762).
T1 sequence (P54762 18-984): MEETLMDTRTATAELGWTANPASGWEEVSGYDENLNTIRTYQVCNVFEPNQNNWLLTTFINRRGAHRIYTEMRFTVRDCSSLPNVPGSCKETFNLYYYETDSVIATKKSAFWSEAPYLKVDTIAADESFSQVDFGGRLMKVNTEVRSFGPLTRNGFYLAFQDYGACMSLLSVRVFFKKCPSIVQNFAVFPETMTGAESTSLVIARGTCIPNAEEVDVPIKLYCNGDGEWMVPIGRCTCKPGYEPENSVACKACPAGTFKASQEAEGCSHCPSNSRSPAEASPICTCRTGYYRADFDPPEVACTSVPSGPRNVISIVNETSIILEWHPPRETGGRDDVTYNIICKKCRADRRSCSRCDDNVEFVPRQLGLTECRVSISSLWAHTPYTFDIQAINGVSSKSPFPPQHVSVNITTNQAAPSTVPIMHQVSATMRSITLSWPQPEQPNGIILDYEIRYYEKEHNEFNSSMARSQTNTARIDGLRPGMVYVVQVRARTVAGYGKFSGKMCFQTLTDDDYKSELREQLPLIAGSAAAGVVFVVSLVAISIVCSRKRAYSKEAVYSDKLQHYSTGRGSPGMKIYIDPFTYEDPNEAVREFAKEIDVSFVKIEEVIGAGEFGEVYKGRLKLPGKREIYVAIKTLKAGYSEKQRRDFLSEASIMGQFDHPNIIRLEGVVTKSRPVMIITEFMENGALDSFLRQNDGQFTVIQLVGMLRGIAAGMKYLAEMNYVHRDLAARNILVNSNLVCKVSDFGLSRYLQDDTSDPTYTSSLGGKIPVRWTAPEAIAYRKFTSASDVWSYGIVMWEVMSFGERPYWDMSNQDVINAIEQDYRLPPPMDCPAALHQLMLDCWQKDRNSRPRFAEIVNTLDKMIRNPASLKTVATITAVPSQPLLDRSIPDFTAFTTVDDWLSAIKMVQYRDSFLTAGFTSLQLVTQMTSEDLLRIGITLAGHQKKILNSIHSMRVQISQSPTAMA
The data set can be described thus: biochemical. As to conditions: read-out: % enzyme activity, 1 μM; Run 1, Run 2.

In data set [7] the target is T2, TGFBR2 (Homo sapiens, UniProt P37173).
T2 construct: purchased Reaction Biology Corporation
T2 sequence (P37173 23-567): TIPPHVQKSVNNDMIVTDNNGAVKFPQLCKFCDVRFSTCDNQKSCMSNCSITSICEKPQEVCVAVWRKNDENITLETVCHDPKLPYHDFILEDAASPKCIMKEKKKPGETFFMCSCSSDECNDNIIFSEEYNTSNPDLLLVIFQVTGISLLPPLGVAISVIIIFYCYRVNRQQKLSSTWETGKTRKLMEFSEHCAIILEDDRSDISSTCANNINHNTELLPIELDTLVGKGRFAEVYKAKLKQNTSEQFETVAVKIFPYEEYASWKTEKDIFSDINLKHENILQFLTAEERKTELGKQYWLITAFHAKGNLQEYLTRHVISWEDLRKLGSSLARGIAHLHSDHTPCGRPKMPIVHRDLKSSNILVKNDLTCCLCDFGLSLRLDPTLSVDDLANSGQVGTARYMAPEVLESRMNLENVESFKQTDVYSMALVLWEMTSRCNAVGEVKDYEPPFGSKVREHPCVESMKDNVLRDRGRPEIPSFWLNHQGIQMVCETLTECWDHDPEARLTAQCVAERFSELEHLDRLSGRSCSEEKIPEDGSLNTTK
The data set can be described thus: 375-member kinase panel. Format: biochemical. As to conditions: Run 1, Run 2; for % enzyme activity: 1 μM; for remaining activity at 1 µM: read-out: % enzyme activity, 1 μM.

Data set [8] concerns Caco-2 cells. The data set can be described thus: Caco-2 permeability assay. The settings on record: 5 μM; for Papp_AB: Caco-2, apical to basolateral; for Papp_BA: Caco-2, basolateral to apical. In general terms: Passage across Caco-2 layers is used to estimate intestinal permeability.
For data set [9], the target named is T3, BMX/ETK (Homo sapiens, UniProt P51813).
T3 sequence (P51813 1-675): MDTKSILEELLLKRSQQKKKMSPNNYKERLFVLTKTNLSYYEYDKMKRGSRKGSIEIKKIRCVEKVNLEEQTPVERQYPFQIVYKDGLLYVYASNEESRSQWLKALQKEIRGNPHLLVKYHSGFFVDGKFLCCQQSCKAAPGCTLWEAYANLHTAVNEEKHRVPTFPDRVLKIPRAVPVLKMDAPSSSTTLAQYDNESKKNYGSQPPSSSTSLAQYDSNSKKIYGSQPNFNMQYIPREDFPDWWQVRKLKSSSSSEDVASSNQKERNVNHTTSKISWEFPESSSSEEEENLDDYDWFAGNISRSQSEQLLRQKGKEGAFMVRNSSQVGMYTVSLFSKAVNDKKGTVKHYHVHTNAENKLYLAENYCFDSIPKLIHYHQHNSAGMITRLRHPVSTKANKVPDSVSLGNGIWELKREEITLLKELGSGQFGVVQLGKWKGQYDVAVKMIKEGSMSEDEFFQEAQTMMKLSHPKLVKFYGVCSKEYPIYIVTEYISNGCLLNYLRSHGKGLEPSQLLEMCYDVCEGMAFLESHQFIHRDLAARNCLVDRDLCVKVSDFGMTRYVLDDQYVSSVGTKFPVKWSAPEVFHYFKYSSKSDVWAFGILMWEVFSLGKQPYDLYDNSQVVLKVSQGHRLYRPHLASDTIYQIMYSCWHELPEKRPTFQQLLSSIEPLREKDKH
The settings on record: 1 μM; Run 1, Run 2.

In data set [10] the target is FLT1/VEGFR1 (Homo sapiens, UniProt P17948). The settings on record: 1 μM; Run 1, Run 2.
Chain of FLT1/VEGFR1 (P17948 27-1338): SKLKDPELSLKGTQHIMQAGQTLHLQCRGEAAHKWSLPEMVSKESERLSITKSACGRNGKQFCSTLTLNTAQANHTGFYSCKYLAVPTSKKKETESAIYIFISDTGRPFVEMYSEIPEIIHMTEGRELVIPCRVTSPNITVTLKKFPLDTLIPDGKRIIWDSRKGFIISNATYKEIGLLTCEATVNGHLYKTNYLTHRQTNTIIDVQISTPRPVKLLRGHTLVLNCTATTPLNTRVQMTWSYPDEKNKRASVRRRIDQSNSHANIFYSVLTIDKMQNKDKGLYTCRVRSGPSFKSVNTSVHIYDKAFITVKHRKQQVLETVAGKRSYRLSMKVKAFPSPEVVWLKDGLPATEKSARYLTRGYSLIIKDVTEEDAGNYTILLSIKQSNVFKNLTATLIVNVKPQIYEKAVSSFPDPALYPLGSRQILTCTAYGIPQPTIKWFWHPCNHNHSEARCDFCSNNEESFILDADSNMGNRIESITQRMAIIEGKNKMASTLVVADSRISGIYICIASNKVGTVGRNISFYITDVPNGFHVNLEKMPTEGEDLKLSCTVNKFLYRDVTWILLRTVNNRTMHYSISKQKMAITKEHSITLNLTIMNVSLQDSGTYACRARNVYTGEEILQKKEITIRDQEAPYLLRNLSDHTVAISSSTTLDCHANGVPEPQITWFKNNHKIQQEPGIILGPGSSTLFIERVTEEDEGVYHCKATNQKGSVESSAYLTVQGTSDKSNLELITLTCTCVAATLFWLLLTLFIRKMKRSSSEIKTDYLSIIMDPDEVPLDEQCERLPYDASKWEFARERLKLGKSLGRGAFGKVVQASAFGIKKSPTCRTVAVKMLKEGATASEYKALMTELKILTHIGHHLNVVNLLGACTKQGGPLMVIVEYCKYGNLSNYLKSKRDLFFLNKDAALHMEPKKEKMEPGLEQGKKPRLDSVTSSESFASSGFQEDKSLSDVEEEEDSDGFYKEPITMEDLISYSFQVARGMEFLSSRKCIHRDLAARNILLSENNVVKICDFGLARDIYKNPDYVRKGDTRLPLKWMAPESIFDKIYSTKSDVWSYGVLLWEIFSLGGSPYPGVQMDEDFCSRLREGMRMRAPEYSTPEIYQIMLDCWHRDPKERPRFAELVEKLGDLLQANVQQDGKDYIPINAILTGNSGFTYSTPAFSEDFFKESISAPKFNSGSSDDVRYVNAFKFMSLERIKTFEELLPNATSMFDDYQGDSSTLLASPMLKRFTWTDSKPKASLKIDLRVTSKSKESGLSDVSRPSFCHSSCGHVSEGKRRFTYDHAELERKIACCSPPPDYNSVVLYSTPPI
Data set [11] addresses T4, DCAMKL1 (Homo sapiens, UniProt O15075).
T4 sequence (O15075 1-740): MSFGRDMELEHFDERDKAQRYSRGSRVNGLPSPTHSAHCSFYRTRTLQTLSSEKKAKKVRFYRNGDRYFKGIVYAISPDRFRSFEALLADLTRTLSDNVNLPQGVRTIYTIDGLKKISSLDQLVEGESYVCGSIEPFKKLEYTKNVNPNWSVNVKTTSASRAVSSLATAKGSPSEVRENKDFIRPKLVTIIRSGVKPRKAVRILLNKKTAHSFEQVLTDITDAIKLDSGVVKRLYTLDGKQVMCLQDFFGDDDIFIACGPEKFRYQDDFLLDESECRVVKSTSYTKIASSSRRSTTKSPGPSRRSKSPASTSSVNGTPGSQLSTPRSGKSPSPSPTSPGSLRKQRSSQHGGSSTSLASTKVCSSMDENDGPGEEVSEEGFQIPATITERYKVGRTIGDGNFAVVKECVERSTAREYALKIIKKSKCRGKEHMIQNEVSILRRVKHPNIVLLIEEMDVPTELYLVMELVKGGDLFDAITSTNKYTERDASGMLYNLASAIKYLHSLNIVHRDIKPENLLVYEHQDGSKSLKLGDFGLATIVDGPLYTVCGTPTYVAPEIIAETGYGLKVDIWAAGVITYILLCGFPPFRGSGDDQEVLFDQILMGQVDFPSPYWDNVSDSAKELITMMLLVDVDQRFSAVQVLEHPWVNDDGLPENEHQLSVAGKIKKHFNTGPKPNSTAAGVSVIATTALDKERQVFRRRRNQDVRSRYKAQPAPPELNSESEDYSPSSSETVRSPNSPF
As to conditions: 1 μM; Run 1, Run 2.

Chain of MLK1/MAP3K9 (P80192 whole entry): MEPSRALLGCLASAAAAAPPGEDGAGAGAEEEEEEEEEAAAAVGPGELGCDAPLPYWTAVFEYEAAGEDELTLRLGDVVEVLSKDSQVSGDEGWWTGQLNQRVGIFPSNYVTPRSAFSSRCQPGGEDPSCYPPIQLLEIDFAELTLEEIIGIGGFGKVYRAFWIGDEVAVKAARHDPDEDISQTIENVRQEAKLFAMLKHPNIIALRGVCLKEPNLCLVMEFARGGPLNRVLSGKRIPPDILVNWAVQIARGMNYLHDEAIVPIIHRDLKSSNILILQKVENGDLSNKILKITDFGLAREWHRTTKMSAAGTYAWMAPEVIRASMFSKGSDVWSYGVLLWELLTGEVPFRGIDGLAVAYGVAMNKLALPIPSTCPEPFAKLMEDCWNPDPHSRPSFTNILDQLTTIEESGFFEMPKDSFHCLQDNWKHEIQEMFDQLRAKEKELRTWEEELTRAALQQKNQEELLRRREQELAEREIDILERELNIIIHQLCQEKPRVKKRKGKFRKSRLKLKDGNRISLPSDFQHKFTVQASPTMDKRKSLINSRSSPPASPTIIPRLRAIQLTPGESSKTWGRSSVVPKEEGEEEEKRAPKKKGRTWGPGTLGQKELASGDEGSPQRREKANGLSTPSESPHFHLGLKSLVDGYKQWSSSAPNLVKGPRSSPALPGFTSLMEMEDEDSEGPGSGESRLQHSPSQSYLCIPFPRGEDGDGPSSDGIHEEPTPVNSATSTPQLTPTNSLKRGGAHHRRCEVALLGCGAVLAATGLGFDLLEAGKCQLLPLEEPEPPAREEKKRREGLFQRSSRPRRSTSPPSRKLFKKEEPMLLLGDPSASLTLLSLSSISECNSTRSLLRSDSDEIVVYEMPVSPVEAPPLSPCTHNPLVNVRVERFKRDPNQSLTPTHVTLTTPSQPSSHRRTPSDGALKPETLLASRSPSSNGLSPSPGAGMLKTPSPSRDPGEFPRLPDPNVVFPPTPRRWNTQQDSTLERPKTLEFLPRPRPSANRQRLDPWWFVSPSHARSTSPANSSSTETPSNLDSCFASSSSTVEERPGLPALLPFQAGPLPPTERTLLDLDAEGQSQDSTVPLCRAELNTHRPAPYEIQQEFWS

Consider `COc1cc(-c2cncc(-c3ccc(N4CCN(C)CC4)cc3)c2C)cc(F)c1C(N)=O` [Compound 26a, 2-Fluoro-6-methoxy-4-(4-methyl-5-(4-(4-methylpiperazin-1-yl)phenyl)pyridin-3-yl)benzamide], for which the remaining activity at 1 µM in data set [1] came out at 91.8%; in [2], 112%; in data set [6], 95.5%; in data set [7] it was 103%. Besides, the “% enzyme activity” value in data set [3] stood at 95.26%; in data set [4] it was 95.18%; in [7] it was 97.44%; in [9], 102.04%; in data set [10], 105.29%; in data set [11], 81.46%. Moreover, the % enzyme activity at 1 μM in [5] is 24.1% and 22.6%. Moreover, the Papp_AB in data set [8] is given as 5.5 10^-6 cm/s. Moreover, the Papp_BA in [8] is 16.2 10^-6 cm/s.
For the molecule `COc1cc(-c2cncc(-c3ccc(N4C[C@@H](C)N(C)[C@@H](C)C4)cc3)c2C)cc(F)c1C(N)=O` [Compound 26c, 2-Fluoro-6-methoxy-4-(4-methyl-5-(4-((3R,5S)-3,4,5-trimethylpiperazin-1-yl)phenyl)pyridin-3-yl)benzamide], the remaining activity at 1 µM was 95.2% in [1], 99.8% in data set [2], 92.6% in [6] and 106% in data set [7]. Moreover, the “% enzyme activity” value in data set [3] turned out to be 96.90%; in data set [4], 97.81%; in [7], 105.33%; in data set [9] it was 100.72%; in data set [10], 104.04%; in [11], 85.85%. Besides, in data set [5], the % enzyme activity at 1 μM was 30.2% and 29.6%. The Papp_AB in data set [8] is given as 4.3 10^-6 cm/s. The Papp_BA in data set [8] is 14.5 10^-6 cm/s.
